Laboratory results taken from PubChem BioAssay AID463199 (Broad Institute, 2010).
Active and inactive are the calls of the source.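 The calls were made as follows: active = AC50, the dose giving half-maximal effect, exceeds a fixed cutoff for a compound that rescues yeast growth under heat; inactive = the rest, inconclusive results apart.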

Test system: S. cerevisiae Burl-1 ts mutant growth, BacTiter-Glo, 38.5C 24 h
Assay: growth induction of Burl-1 ts yeast mutant, dose response, counter-screen for SUMOylation pathway inhibitor project, whole organism, S. cerevisiae, luminescence (AID 463199)

Q: How did the AC50 turn out when `CC1(C)Cc2c(cnn2-c2ccc(F)cc2)C(NC(=O)CCCN2CCCCC2=O)C1` (stereo not given) was run?
A: The AC50 was > 42 µM (inactive).

Q: With `O=S(=O)(Nc1ccc(N2CCOCC2)cc1)c1cccs1` as the compound, how does the AC50 read?
A: Its AC50 is > 42 µM (inactive).

Q: Which AC50 does the source give for `COc1cc(NC(=O)C2=CC(c3ccco3)=NS(=O)(=O)N2C)cc(OC)c1OC` here?
A: Its AC50 is > 42 µM (inactive).

Q: `CC(C)CNc1cc(=O)n(C)c(=O)n1C` was tested. Which AC50 did it give?
A: Its AC50 is > 42 µM (inactive).

Q: For `O=C(COc1ccccc1)NCCS(=O)(=O)N1CCN(c2ccccc2)CC1`, which AC50 is on record?
A: Its AC50 is > 42 µM (inactive).

Q: Which AC50 does the source give for `CCN(CC)/C(=N\S(=O)(=O)c1ccc(F)cc1)c1ccccc1` here?
A: The AC50 was > 21 µM (inactive).

Q: How did the AC50 turn out when `Cc1cccc(NC(=S)NC(=O)/C=C/c2ccco2)c1` was run?
A: Its AC50 is > 42 µM (inactive).

Q: Which AC50 does the source give for `CC(=O)Nc1ccc(S(=O)(=O)Nc2ccc3c(c2)C(=O)OC3)cc1` here?
A: The AC50 was > 42 µM (inactive).

Q: Which AC50 does the source give for `CCN(CC)CCCN1C(=O)C(=O)/C(=C(/O)c2ccccc2)C1c1cc(OC)ccc1OC` (stereo not given) here?
A: The AC50 was > 42 µM (inactive).

Q: `COc1ccccc1CNCc1cc(OC)c(OC)c(OC)c1` was tested. Which AC50 did it give?
A: Its AC50 is > 42 µM (inactive).

Q: Which AC50 does the source give for `COc1ccc2oc(=O)c(C(=O)NCc3ccco3)cc2c1` here?
A: Its AC50 is 15.5 µM.

Q: `COc1ccccc1C(=O)NCCNc1ccc([N+](=O)[O-])cc1Cl` was tested. Which AC50 did it give?
A: The AC50 was > 42 µM (inactive).

Q: For `CCOC1(OCC)C(c2ccc(Cl)cc2)C(C#N)(C#N)C1(OCC)OCC` (stereo not given), which AC50 is on record?
A: The AC50 was > 42 µM (inactive).

Q: `O=C1CSC(c2ccc(F)c(F)c2)N1c1ccccc1F` (stereo not given) was tested. Which AC50 did it give?
A: The AC50 was > 42 µM (inactive).

Q: How did the AC50 turn out when `O=C1OCc2cc(NS(=O)(=O)c3cccs3)ccc21` was run?
A: Its AC50 is > 42 µM (inactive).

Q: `Cc1ccc(C(=O)Nc2ccc3c(c2)OCCO3)c(Cl)c1` was tested. Which AC50 did it give?
A: The AC50 was > 42 µM (inactive).

Q: With `C=CCn1c(CCC)nc2ccccc21` as the compound, how does the AC50 read?
A: Its AC50 is > 42 µM (inactive).

Q: With `O=C(NCc1cccnc1)Nc1ccccc1` as the compound, how does the AC50 read?
A: The AC50 was > 42 µM (inactive).

Q: With `COC(=O)C12CCC3(SCCS3)C(C(=O)OC)(CCC13SCCS3)C2` as the compound, how does the AC50 read?
A: Its AC50 is > 42 µM (inactive).

Q: With `COc1ccc(CN2CCNC(=O)C2CC(=O)NCc2cn3ccc(C)cc3n2)c(OC)c1` (stereo not given) as the compound, how does the AC50 read?
A: Its AC50 is > 42 µM (inactive).

Q: For `Cc1cc2ncc(C(=O)N=CN(C)C)cn2n1`, which AC50 is on record?
A: Its AC50 is > 42 µM (inactive).

Q: Which AC50 does the source give for `O=C(CSc1nccc(=O)[nH]1)c1cc2ccccc2o1` here?
A: Its AC50 is > 42 µM (inactive).

Q: With `C=CC(=O)NC1CC2CCC1(C)C2(C)C` (stereo not given) as the compound, how does the AC50 read?
A: The AC50 was > 42 µM (inactive).

Q: How did the AC50 turn out when `O=C(c1cc(-c2ccc(Cl)c(Cl)c2)on1)N1CCN(c2ccccc2)CC1` was run?
A: The AC50 was > 42 µM (inactive).

Q: For `O=S(=O)(O)c1ccc(N=NNc2ccc(Br)cc2)cc1`, which AC50 is on record?
A: Its AC50 is > 42 µM (inactive).

Q: Which AC50 does the source give for `COc1cccc(C(=O)NCc2ccc(-c3nc4ccccc4s3)cc2)c1` here?
A: The AC50 was > 42 µM (inactive).

Q: With `O=C(Nc1ccc2nc(-c3ccc4nc[nH]c4c3)[nH]c2c1)c1cccs1` as the compound, how does the AC50 read?
A: The AC50 was > 42 µM (inactive).

Q: With `Cc1cccc(NS(=O)(=O)c2ccc3[nH]c(=O)cc(C(=O)O)c3c2)c1` as the compound, how does the AC50 read?
A: Its AC50 is > 21 µM (inactive).

Q: `O=C(NC1CCCCC1)c1n[nH]c2c1CCCCC2` was tested. Which AC50 did it give?
A: Its AC50 is > 42 µM (inactive).

Q: Which AC50 does the source give for `Cn1c(=O)[nH]c(=O)c2c1nc(Sc1ccccc1)n2CCc1ccccc1` here?
A: The AC50 was > 42 µM (inactive).

Q: With `CC(=O)Nc1ccc(S(=O)(=O)N(C)CC(=O)Nc2ccc(Br)cc2F)cc1` as the compound, how does the AC50 read?
A: Its AC50 is > 42 µM (inactive).

Q: `COCCNC(=O)C(=O)N/N=C(\C)CC(=O)Nc1cccc(C(F)(F)F)c1` was tested. Which AC50 did it give?
A: The AC50 was > 42 µM (inactive).

Q: `CC1(C)NC(=O)N(CC(=O)O)C1=O` was tested. Which AC50 did it give?
A: The AC50 was > 42 µM (inactive).

Q: `Cc1ccc(S(=O)(=O)NCCS(=O)(=O)N2CCN(c3ccc(F)cc3)CC2)cc1` was tested. Which AC50 did it give?
A: Its AC50 is > 42 µM (inactive).

Q: With `Cc1ccccc1-n1c(-c2cccnc2)n[nH]c1=S` as the compound, how does the AC50 read?
A: Its AC50 is > 42 µM (inactive).

Q: `O=C(O)COc1ccc(=O)n(-c2ccccc2)n1` was tested. Which AC50 did it give?
A: The AC50 was > 42 µM (inactive).

Q: With `O=C(NCc1cccc(F)c1F)C1CCC(=O)N(C2CC2)C1` (stereo not given) as the compound, how does the AC50 read?
A: Its AC50 is > 42 µM (inactive).

Q: With `Cc1ccc(-n2nnnc2C(Cl)(Cl)c2nnnn2-c2ccc(C)cc2)cc1` as the compound, how does the AC50 read?
A: Its AC50 is > 42 µM (inactive).

Q: With `CC(=O)Nc1ccc(/C(C)=N/NC(=O)c2ccncc2)cc1` as the compound, how does the AC50 read?
A: Its AC50 is > 42 µM (inactive).

Q: For `O=C(C[n+]1ccc(C(=O)N/N=C/c2ccc(Cl)cc2Cl)cc1)c1ccccc1`, which AC50 is on record?
A: Its AC50 is > 42 µM (inactive).

Q: Which AC50 does the source give for `O=C(CSc1nc(=O)n2ccccc2n1)N1CCN(c2ccccc2)CC1` here?
A: The AC50 was > 42 µM (inactive).

Q: How did the AC50 turn out when `C=C1C2C[C@@]3([C@@H]1O)[C@@H](C[C@@H]2O)[C@@]12C4[C@@H]3C[C@@H]1[C@@](C)(CC[C@@H]2O)CN4CC` was run?
A: Its AC50 is > 42 µM (inactive).

Q: How did the AC50 turn out when `CCOc1ccc(C(C(=O)NC2CCCC2)N(C(=O)c2snc(C(N)=O)c2N)C2CCCC2)cc1` (stereo not given) was run?
A: Its AC50 is > 42 µM (inactive).

Q: `c1ccc(-c2cc3ccccc3cn2)cc1` was tested. Which AC50 did it give?
A: The AC50 was > 42 µM (inactive).

Q: `CC1(C)CC(=O)C2=C(C1)OC(N)=C(C#N)C21C(=O)N(CN2CCOCC2)c2ccccc21` (stereo not given) was tested. Which AC50 did it give?
A: Its AC50 is > 42 µM (inactive).

Q: How did the AC50 turn out when `CC(=O)Nc1sc2c(c1C(c1ccc(F)cc1)N1CCOCC1)CCCC2` (stereo not given) was run?
A: The AC50 was > 42 µM (inactive).

Q: `Fc1ccc(-c2cc(C(F)(F)F)nc(NCc3cccs3)n2)cc1` was tested. Which AC50 did it give?
A: Its AC50 is > 42 µM (inactive).

Q: With `O=C(NC1CCCCC1)C(c1ccncc1)N(Cc1ccc2c(c1)OCO2)C(=O)C(F)(F)F` (stereo not given) as the compound, how does the AC50 read?
A: The AC50 was > 42 µM (inactive).

Q: How did the AC50 turn out when `Cc1sc2nc(SCC(=O)NCCOCCO)n(C)c(=O)c2c1C` was run?
A: The AC50 was > 42 µM (inactive).

Q: With `CCN1CCCC1CN(Cc1cc2ccc(C)cc2[nH]c1=O)C(=S)Nc1ccc(OC)cc1OC` (stereo not given) as the compound, how does the AC50 read?
A: The AC50 was > 42 µM (inactive).
